Source: patent publication US9237744B2, “Preservative solution for cells, tissues and organs containing rare sugar and preservative method thereof” (NATIONAL UNIVERSITY CORPORATION KAGAWA UNIVERSITY, priority 2004, dated 2016)

Experiments:
[1] = system: HFB (human fibroblast); assay: Cell growth after thawing of freeze-preserved cells, MTT assay (Example 1); type: cell-based; settings: culture medium plus sugar, in comparison with other cases (FIG. 2)
Description: (§1) 1. Cells used: Hela (human cervical cancer), OVCAR-3 (human ovarian cancer), HuH-7 (human liver cancer), HaCaT (human skin keratinocyte), HFB (human fibroblast) and NIH3T3 (mouse fibroblast). Saccharides D-allose and the like were added to culture medium, Cell Banker (commercially available preservative solution) and DMSO at concentrations of 25 mM and 50 mM. Monosaccharides such as D-glucose, D-fructose, D-mannose and D-galactose which are present in nature in large quantities and D-allose, D-psicose, D-altrose, allitol, D-talitol and L-sorbose as rare sugars were used. Further, trehalose as disaccharide was used. The cells were preserved for 24 hours by being frozen at −80° C. 2) Cell growth: One day later, the cells were thawed, and 0.25˜2×10^4 cells/well were spread on 96-well plate with 0.1 mL medium. After a prescribed period of time, the cell growth was measured by MTT assay.

[2] = system: HFB cells and NIH3T3 cells; assay: Proliferation ability after freeze-preservation with Cell Banker containing rare sugar (Example 1); type: cell-based, human, mouse; settings: sugar added to Cell Banker, versus Cell Banker alone (FIG. 3)
Description: as §1, with “assay. 3) Then, the rare sugar was added to Cell Banker which was widely used for freeze-preservation of cells, and an effect of preservability was comparatively studied.” for “assay.”

[3] = system: Hela, OVCAR-3, HaCaT, HFB and NIH3T3 cells; assay: Survival rate of cells after freeze-preservation at high sugar concentration, trypan blue (Example 2); type: cell-based, human, mouse; settings: sugar-containing medium in comparison with medium alone (FIG. 7)
Description: 1. Cells used: Hela (human cervical cancer), OVCAR-3 (human ovarian cancer), HaCaT (human skin keratinocyte), HFB (human fibroblast) and NIH3T3 (mouse fibroblast). Saccharides D-allose and the like were added to culture medium, Cell Banker (commercially available preservative solution) and DMSO at concentrations of 0.2, 0.4, 0.6, 0.8 and 1M. Monosaccharides such as D-glucose, D-fructose, D-mannose and D-galactose which are present in nature in large quantities and D-allose, D-altrose, D-psicose, L-psicose, D-sorbose, L-sorbose, D-tagatose, L-tagatose and L-fructose as rare sugars were used. Further, trehalose as disaccharide was used. The cells frozen with D-allose were freeze-preserved at −80° C. and in liquid nitrogen for 24 hours, 1 week and 4 weeks. 1) Survival rate of cells: The cells were thawed, and the survival rate was estimated by a trypan blue dying method.

[4] = system: Hela, OVCAR-3, HaCaT, HFB and NIH3T3 cells; assay: Cell growth after thawing of cells freeze-preserved at optimum concentrations, MTT assay (Example 2); type: cell-based, human, mouse; settings: freeze-preserved 24 hours at optimum concentration, versus other cases (FIG. 8)
Description: 1. Cells used: Hela (human cervical cancer), OVCAR-3 (human ovarian cancer), HaCaT (human skin keratinocyte), HFB (human fibroblast) and NIH3T3 (mouse fibroblast). Saccharides D-allose and the like were added to culture medium, Cell Banker (commercially available preservative solution) and DMSO at concentrations of 0.2, 0.4, 0.6, 0.8 and 1M. Monosaccharides such as D-glucose, D-fructose, D-mannose and D-galactose which are present in nature in large quantities and D-allose, D-altrose, D-psicose, L-psicose, D-sorbose, L-sorbose, D-tagatose, L-tagatose and L-fructose as rare sugars were used. Further, trehalose as disaccharide was used. The cells frozen with D-allose were freeze-preserved at −80° C. and in liquid nitrogen for 24 hours, 1 week and 4 weeks. 2) Cell growth: The cells were freeze-preserved with D-allose and trehalose at optimum concentrations for 24 hours, thawed, and spread on a 96-well plate such that the concentration was 0.5-1×10^4 cells/well/0.1 ml. After a prescribed period of time, the cell growth was measured by MTT assay.

SMILES: OC[C@H]1O[C@H](O[C@H]2O[C@H](CO)[C@@H](O)[C@H](O)[C@H]2O)[C@H](O)[C@@H](O)[C@@H]1O [trehalose, reference compound]
- growth rate of cells after thawing [1]: nearly the same effect was obtained
- proliferation ability after freeze-preservation [2]: nearly the same effect was obtained
- number of cells survived (trypan blue dying) [3]: the same
- growth rate of cells after thawing [4]: nearly the same effect was obtained
